Results as given in ChEMBL document CHEMBL1201862, “PubChem BioAssay data set” (2004).
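Tested at 5 concentrations; 48 h exposure; 96-well plates; endpoints linearly interpolated, else capped at highest concentration. GI50: concentration for 50% inhibition of growth.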 The source made the active and inactive calls. Rule as the data show it: active = GI50 up to about 1.1 µM and inactive = higher.

Experiments:
Assay in all cases: NCI-60 cell line screen, 48 h
[1] = tested on: MDA-MB-435
[2] = tested on: UO-31
[3] = tested on: OVCAR-8
[4] = tested on: EKVX
[5] = tested on: MDA-MB-231
[6] = tested on: Hs-578T
[7] = tested on: ACHN
[8] = tested on: RXF 393
[9] = tested on: KM12
[10] = tested on: IGROV-1
[11] = tested on: SF-295
[12] = tested on: UACC-257
[13] = tested on: SK-MEL-28
[14] = tested on: HOP-62
[15] = tested on: NCI-H522
[16] = tested on: LOX IMVI
[17] = tested on: RPMI-8226
[18] = tested on: U-251
[19] = tested on: HCC 2998
[20] = tested on: T47D

Measured: GI50

[O-][n+]1onc2c1CCC(=N\O)/C2=N/Nc1ccccc1
inactive: [1] > 100 µM | [2] > 100 µM | [3] > 100 µM | [4] > 100 µM | [5] > 100 µM | [6] > 100 µM | [7] > 100 µM | [8] > 100 µM | [9] > 100 µM | [10] > 100 µM | [11] > 100 µM | [12] > 100 µM | [13] > 100 µM | [14] > 100 µM | [15] > 100 µM | [16] > 100 µM | [17] > 100 µM

C/C=C\C(CC(=O)NCCc1cn(C(=O)OCc2ccccc2)c2ccccc12)CC(=O)OC (configuration not stated)
inactive: [1] 42.3 µM | [2] 50.8 µM | [3] > 100 µM | [4] 45.2 µM | [5] > 100 µM | [18] > 100 µM | [6] > 100 µM | [7] > 100 µM | [8] 56.4 µM | [9] 62.5 µM | [19] > 100 µM | [10] 76.7 µM | [11] 57 µM | [12] 52.8 µM | [13] > 100 µM | [14] > 100 µM | [15] 48.8 µM | [17] 58.7 µM

C=CC[C@H](O)[C@@](NC(=O)OCc1ccccc1)(Sc1ccc(C)cc1)C(F)(F)F
inactive: [1] 24.1 µM | [2] 17.9 µM | [3] 16.9 µM | [4] 30.6 µM | [5] 24.8 µM | [18] 14.5 µM | [6] 24 µM | [7] > 100 µM | [8] 23.3 µM | [9] 25.8 µM | [19] > 100 µM | [10] 10.1 µM | [11] 21.9 µM | [12] 23.4 µM | [13] 43.7 µM | [14] 28.9 µM | [15] 15.5 µM | [16] 4.44 µM | [17] 23.4 µM

CC(=O)OC12C(C)=C(C)C(=O)N1c1ccccc1N2C(C)=O (configuration not stated)
inactive: [2] > 100 µM | [3] > 100 µM | [4] > 100 µM | [18] > 100 µM | [7] > 100 µM | [8] > 100 µM | [9] > 100 µM | [19] > 100 µM | [10] > 100 µM | [11] > 100 µM | [12] > 100 µM | [13] 33.4 µM | [14] > 100 µM | [15] > 100 µM | [16] > 100 µM | [17] > 100 µM

CCCCCCCCCC(=O)NC(CCC(=O)N(CCNC(=O)c1nc(-c2ccccc2)oc1-c1ccccc1)Cc1ccccc1)C(=O)O (configuration not stated)
inactive: [1] 18.7 µM | [2] 15.2 µM | [3] 17.5 µM | [4] 16.6 µM | [5] 19.9 µM | [18] 18.9 µM | [7] 18.8 µM | [8] 17.6 µM | [9] 19.7 µM | [10] 19.5 µM | [11] 18.1 µM | [12] 23.4 µM | [13] 22.3 µM | [14] 16.4 µM | [15] 18.5 µM | [16] 18.6 µM | [17] 17.3 µM | [20] 20.4 µM

CCOC(=O)c1cc(-c2ccc(OC)cc2)c([N+](=O)[O-])n1C
inactive: [1] > 10 µM | [2] > 10 µM | [3] > 10 µM | [4] > 10 µM | [18] > 10 µM | [6] > 10 µM | [7] > 10 µM | [8] 2.13 µM | [9] > 10 µM | [19] > 10 µM | [10] > 10 µM | [11] > 10 µM | [12] > 10 µM | [15] > 10 µM

Cc1cccc(/N=N/c2ccc(/N=N/c3c(O)ccc4ccccc34)cc2C)c1
inactive: [1] > 100 µM | [2] > 100 µM | [3] 7.05 µM | [4] 84.7 µM | [5] > 100 µM | [18] 54.2 µM | [6] 33.9 µM | [7] 49.3 µM | [8] 27 µM | [9] > 100 µM | [19] > 100 µM | [10] > 100 µM | [11] 44.2 µM | [12] > 100 µM | [13] > 100 µM | [14] 22.4 µM | [15] 14.2 µM | [17] > 100 µM

O=c1[nH]c2c(c(=O)[nH]1)SC(c1ccccc1)C2 (configuration not stated)
inactive: [1] > 100 µM | [2] > 100 µM | [3] > 100 µM | [4] 72.1 µM | [5] > 100 µM | [18] > 100 µM | [6] > 100 µM | [7] > 100 µM | [8] > 100 µM | [9] > 100 µM | [19] > 100 µM | [10] > 100 µM | [11] > 100 µM | [12] > 100 µM | [13] > 100 µM | [14] > 100 µM | [15] > 100 µM | [16] > 100 µM | [17] > 100 µM

CCCCc1c2c(nc3c1CCc1cc(C=O)c(N)nc1-3)/C(=C/c1ccccc1)CCC2
inactive: [2] > 100 µM | [3] 46.2 µM | [4] 48.4 µM | [18] > 100 µM | [7] > 100 µM | [8] > 100 µM | [9] > 100 µM | [19] 29.9 µM | [10] > 100 µM | [11] > 100 µM | [12] > 100 µM | [13] > 100 µM | [14] > 100 µM | [15] > 100 µM | [16] > 100 µM | [17] > 100 µM

O=C1c2cccc3cccc(c23)C(=O)N1CCCNOCCONCCCN1C(=O)c2cccc3cccc(c23)C1=O
inactive: [1] > 100 µM | [2] 45.5 µM | [3] 43.3 µM | [4] > 100 µM | [5] > 100 µM | [18] 59.7 µM | [6] 92.3 µM | [7] > 100 µM | [8] 29.4 µM | [9] > 100 µM | [19] 98.2 µM | [10] 62.8 µM | [11] > 100 µM | [12] 67.6 µM | [13] > 100 µM | [14] 62.1 µM | [16] 43.5 µM | [17] 16.9 µM

CC(C)[Si](OC12CCC(CC1O)CC2CO)(C(C)C)C(C)C (configuration not stated)
inactive: [1] 16.1 µM | [2] 13.9 µM | [3] 16.2 µM | [5] 19.7 µM | [18] 12.6 µM | [7] 14.2 µM | [9] 12.7 µM | [11] 12.2 µM | [12] 13.7 µM | [13] 20.4 µM | [14] 16.4 µM | [17] 10.2 µM | [20] 9.77 µM

CN1C(C(=O)Nc2ccccn2)=C(O)c2ccccc2S1(=O)=O [PIROXICAM]
inactive: [1] > 100 µM | [2] > 100 µM | [3] > 100 µM | [4] > 100 µM | [18] > 100 µM | [7] > 100 µM | [8] > 100 µM | [9] > 100 µM | [11] > 100 µM | [12] > 100 µM | [13] > 100 µM | [14] > 100 µM | [15] > 100 µM | [16] > 100 µM | [17] > 100 µM | [20] > 100 µM
